According to the supplement of paper PMC10307832:

Key:
Assay in all cases: relative viability (nuclei count vs DMSO), 5 days (fraction); higher = more cells survive
Doxorubicin + Pemetrexed = compound: COc1cccc2c1C(=O)c1c(O)c3c(c(O)c1C2=O)C[C@@](O)(C(=O)CO)C[C@@H]3O[C@H]1C[C@H](N)[C@H](O)[C@H](C)O1 [Doxorubicin] + Nc1nc2[nH]cc(CCc3ccc(C(=O)N[C@@H](CCC(=O)O)C(=O)O)cc3)c2c(=O)[nH]1 [Pemetrexed] (partner 0.2 µM)
Outline: (§1)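 One day after seeding in 1536-well plates, lung cancer cell lines were dosed by pin tool. Dosing was either single-drug or a fixed anchor-drug dose plus five library-drug doses (not always all listed) in √10 steps. After 5 days, nuclei were stained in one fix-and-stain step and counted on 4× images, and relative viability is the nuclei count of treated wells over that of vehicle wells, given as the median of duplicate plates.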

Doxorubicin + OSI-027 = compound: COc1cccc2c1C(=O)c1c(O)c3c(c(O)c1C2=O)C[C@@](O)(C(=O)CO)C[C@@H]3O[C@H]1C[C@H](N)[C@H](O)[C@H](C)O1 [Doxorubicin] + COc1cccc2cc(-c3nc([C@H]4CC[C@H](C(=O)O)CC4)n4ncnc(N)c34)[nH]c12 [OSI-027] (partner 0.5 µM)
Outline: as §1

Doxorubicin + Lapatinib = compound: COc1cccc2c1C(=O)c1c(O)c3c(c(O)c1C2=O)C[C@@](O)(C(=O)CO)C[C@@H]3O[C@H]1C[C@H](N)[C@H](O)[C@H](C)O1 [Doxorubicin] + CS(=O)(=O)CCNCc1ccc(-c2ccc3ncnc(Nc4ccc(OCc5cccc(F)c5)c(Cl)c4)c3c2)o1 [Lapatinib] (partner 2 µM)
Outline: as §1

BAY61-3606 + Foretinib = compound: COC1=C(C=C(C=C1)C2=CC3=NC=CN3C(=N2)NC4=C(C=CC=N4)C(=O)N)OC [BAY61-3606] + COc1cc2c(Oc3ccc(NC(=O)C4(C(=O)Nc5ccc(F)cc5)CC4)cc3F)ccnc2cc1OCCCN1CCOCC1 [Foretinib] (partner 0.25 µM)
Outline: as §1

Row | Cell Line | relative viability (Doxorubicin + Pemetrexed; first compound 0.001 µM) | relative viability (Doxorubicin + Pemetrexed; first compound 0.003162 µM) | relative viability (Doxorubicin + Pemetrexed; first compound 0.01 µM) | relative viability (Doxorubicin + Pemetrexed; first compound 0.03162 µM) | relative viability (Doxorubicin + Pemetrexed; first compound 0.1 µM) | relative viability (Doxorubicin + OSI-027; first compound 0.001 µM) | relative viability (Doxorubicin + OSI-027; first compound 0.003162 µM) | relative viability (Doxorubicin + OSI-027; first compound 0.01 µM) | relative viability (Doxorubicin + OSI-027; first compound 0.03162 µM) | relative viability (Doxorubicin + OSI-027; first compound 0.1 µM) | relative viability (Doxorubicin + Lapatinib; first compound 0.001 µM) | relative viability (Doxorubicin + Lapatinib; first compound 0.003162 µM) | relative viability (Doxorubicin + Lapatinib; first compound 0.01 µM) | relative viability (Doxorubicin + Lapatinib; first compound 0.03162 µM) | relative viability (Doxorubicin + Lapatinib; first compound 0.1 µM) | relative viability (BAY61-3606 + Foretinib; first compound 0.02 µM) | relative viability (BAY61-3606 + Foretinib; first compound 0.06325 µM) | relative viability (BAY61-3606 + Foretinib; first compound 0.2 µM) | relative viability (BAY61-3606 + Foretinib; first compound 0.6325 µM) | relative viability (BAY61-3606 + Foretinib; first compound 2 µM)
1 | LK-2 | 0.225 | 0.255 | 0.228 | 0.26 | 0.238 | 0.175 | 0.191 | 0.244 | 0.187 | 0.199 | 0.879 | 0.74 | 0.804 | 0.724 | 0.81 | 1.24 | 1.19 | 1 | 1.32 | 0.768
2 | LOU-NH91 |  | 0.415 | 0.359 | 0.365 | 0.276 | 0.569 | 0.748 | 0.803 | 0.681 | 0.69 |  | 0.736 | 0.765 | 0.579 | 0.599 | 0.95 | 0.916 | 0.985 | 0.976 | 0.823
3 | NCI-H441 | 0.253 | 0.264 | 0.265 | 0.229 | 0.224 |  | 0.524 | 0.445 | 0.261 | 0.279 |  |  |  |  |  | 0.979 | 1.12 | 1.15 | 0.862 | 0.754
4 | NCI-H522 | 0.949 | 1.02 | 1.16 | 0.844 | 0.878 | 0.568 | 0.72 | 0.792 | 0.756 | 0.709 |  |  |  |  |  |  |  |  |  | 
5 | NCI-H727 |  |  |  |  |  | 0.483 | 0.713 | 0.531 | 0.631 | 0.556 | 0.76 | 0.784 | 0.792 | 0.666 | 0.681 | 0.919 | 0.931 | 0.887 | 0.985 | 0.8
6 | NCI-H1299 |  |  |  |  |  |  |  |  |  |  | 0.988 | 0.973 | 0.955 | 0.889 | 0.514 | 1.12 | 1.07 | 1.11 | 1.03 | 1.07
7 | NCI-H1623 |  |  |  |  |  | 0.388 | 0.41 | 0.462 | 0.434 | 0.423 |  |  |  |  |  | 0.841 | 0.919 | 0.896 | 0.864 | 0.846
8 | NCI-H1648 | 0.756 | 0.746 | 0.724 | 0.695 | 0.632 | 0.291 | 0.276 | 0.261 | 0.259 | 0.266 |  |  |  |  |  |  |  |  |  | 
9 | NCI-H1703 |  |  |  |  |  |  |  |  |  |  | 0.821 | 1.14 | 0.448 | 0.241 | 0.21 | 0.337 |  | 0.315 | 0.316 | 0.346
10 | NCI-H1792 | 0.43 | 0.889 | 0.809 | 0.691 | 0.466 |  | 0.674 | 0.713 | 0.709 | 0.625 | 0.942 | 0.911 | 0.874 | 0.865 | 0.89 |  |  |  |  | 
11 | NCI-H2342 | 0.802 | 0.843 | 0.761 | 0.711 | 0.818 | 0.628 | 0.563 | 0.597 | 0.59 | 0.609 |  |  |  |  |  | 1.03 | 1.05 | 1.02 | 1.22 | 0.957
12 | SW 900 |  | 0.461 | 0.465 | 0.498 | 0.412 | 0.373 | 0.708 | 0.571 | 0.401 | 0.226 |  |  |  |  |  | 0.826 | 0.949 | 0.571 | 1.11 | 0.586
